The record followed here is ChEMBL document CHEMBL3808318, “Design, synthesis and inhibitory activity against human dihydroorotate dehydrogenase (hDHODH) of 1,3-benzoazole derivatives bearing amide units” (Bioorg Med Chem Lett, 2016).

As usually defined, the IC50 is the concentration that gives 50% inhibition. For orientation: inhibition means the change of the read-out against control, counted positive when it falls.

T1 sequence (Q02127 whole entry): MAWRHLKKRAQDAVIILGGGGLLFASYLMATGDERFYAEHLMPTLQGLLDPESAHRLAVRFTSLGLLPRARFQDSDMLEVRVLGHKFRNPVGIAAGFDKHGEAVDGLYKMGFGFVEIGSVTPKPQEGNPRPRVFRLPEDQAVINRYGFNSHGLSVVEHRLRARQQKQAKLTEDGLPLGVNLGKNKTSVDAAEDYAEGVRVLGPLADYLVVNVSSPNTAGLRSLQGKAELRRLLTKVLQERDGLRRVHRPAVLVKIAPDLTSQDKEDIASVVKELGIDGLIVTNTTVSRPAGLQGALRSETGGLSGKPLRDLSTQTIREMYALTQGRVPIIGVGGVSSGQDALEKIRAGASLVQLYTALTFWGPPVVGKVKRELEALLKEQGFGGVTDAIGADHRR

One assay concerns the target T1, Dihydroorotate dehydrogenase (quinone), mitochondrial (Homo sapiens, UniProt Q02127). The experiment in a line: Inhibition of human DHODH assessed as decrease in DCIP using dihydroorotate as substrate measured every 30 seconds for 6 mins.
Take `COc1ccc(C(F)(F)F)cc1NC(=O)c1cccc2nc(-c3cc(Br)nn3-c3ncccc3Cl)[nH]c12`: the IC50 came out at 4850 nM.
`Cc1ccccc1NC(=O)c1cccc2nc(-c3cc(Br)nn3-c3ncccc3Cl)[nH]c12`: the IC50 is 676 nM.
In the case of `COc1ccccc1NC(=O)c1cccc2nc(-c3cc(Br)nn3-c3ncccc3Cl)[nH]c12`, the IC50 was found to be 178 nM.

The target of another assay is T1, Dihydroorotate dehydrogenase (quinone), mitochondrial. The experiment in a line: Potency index, ratio of A771726 IC50 to compound IC50 for human DHODH.
Take `COc1ccccc1NC(=O)c1cccc2nc(-c3cc(Br)nn3-c3ncccc3Cl)[nH]c12`: the Ratio IC50 turned out to be 2.

A further assay shares this target. The experiment in a line: Inhibition of human DHODH assessed as decrease in DCIP at 10 uM using dihydroorotate as substrate measured every 30 seconds for 6 mins.
On to `Cc1ccc(CNC(=O)c2cccc3nc(-c4cc(Br)nn4-c4ncccc4Cl)[nH]c23)cc1`, for which the inhibition is 22.7%.
Turning to `O=C(Nc1ccccc1I)c1cccc2nc(-c3cc(Br)nn3-c3ncccc3Cl)[nH]c12`, the inhibition is 24.8%.
On the same count and under the same terms, next, `O=C(NCc1ccc(C(F)(F)F)cc1)c1cccc2nc(-c3cc(Br)nn3-c3ncccc3Cl)[nH]c12`: 32%.
Consider `O=C(Nc1ccccc1)c1cccc2nc(-c3cc(Br)nn3-c3ncccc3Cl)[nH]c12`, for which the inhibition was found to be 49.4%.
In the case of `COc1ccc(C(F)(F)F)cc1NC(=O)c1cccc2nc(-c3cc(Br)nn3-c3ncccc3Cl)[nH]c12`, the inhibition stood at 55.2%.
As to `O=C(Nc1ccccc1F)c1cccc2nc(-c3cc(Br)nn3-c3ncccc3Cl)[nH]c12`, the inhibition is 38.8%.
For the compound `COc1cccc(F)c1NC(=O)c1cccc2nc(-c3cc(Br)nn3-c3ncccc3Cl)[nH]c12`, the inhibition is 15.7%.
As for `COc1ccc(NC(=O)c2cccc3nc(-c4cc(Br)nn4-c4ncccc4Cl)[nH]c23)cc1`, the inhibition was found to be 36.1%.
For the compound `CCCNC(=O)c1cccc2nc(-c3cc(Br)nn3-c3ncccc3Cl)[nH]c12`, the inhibition turned out to be 23.4%.
For the compound `CNC(=O)c1cccc2nc(-c3cc(Br)nn3-c3ncccc3Cl)[nH]c12`, the inhibition turned out to be 14.1%.
The same measure, in the same setting: the same measure for `Cc1ccc(NC(=O)c2cccc3nc(-c4cc(Br)nn4-c4ncccc4Cl)[nH]c23)c(C)c1`: 48.8%.
Take `COc1ccc(NC(=O)c2cccc3nc(-c4cc(Br)nn4-c4ncccc4Cl)[nH]c23)c(OC)c1`: the inhibition came out at 1.3%.
For `O=C(Nc1ccc(F)cc1F)c1cccc2nc(-c3cc(Br)nn3-c3ncccc3Cl)[nH]c12`, the inhibition turned out to be 26.9%.
On the same count and under the same terms, the same measure for `Cc1cccc(NC(=O)c2cccc3nc(-c4cc(Br)nn4-c4ncccc4Cl)[nH]c23)c1`: 18.9%; for `Cc1ccccc1NC(=O)c1cccc2nc(-c3cc(Br)nn3-c3ncccc3Cl)[nH]c12`: 73.9%.
Turning to `O=C(NCc1c(F)ccc(F)c1F)c1cccc2nc(-c3cc(Br)nn3-c3ncccc3Cl)[nH]c12`, the inhibition amounted to 43%.
Same read-out and setting: next, `COc1ccccc1NC(=O)c1cccc2nc(-c3cc(Br)nn3-c3ncccc3Cl)[nH]c12`: 60.5%; `C/C(O)=C(\C#N)C(=O)Nc1ccc(C(F)(F)F)cc1`: 64%.
Regarding `O=C(Nc1ccc(F)c(F)c1F)c1cccc2nc(-c3cc(Br)nn3-c3ncccc3Cl)[nH]c12`, the inhibition is 31.9%.
On the same count and under the same terms, next, `CCNC(=O)c1cccc2nc(-c3cc(Br)nn3-c3ncccc3Cl)[nH]c12`: 24.9%; `O=C(NCc1ccccn1)c1cccc2nc(-c3cc(Br)nn3-c3ncccc3Cl)[nH]c12`: 27.6%.
Still for that read-out and setting: the same measure for `COc1cccc(OC)c1NC(=O)c1cccc2nc(-c3cc(Br)nn3-c3ncccc3Cl)[nH]c12`: 0%.
As to `CCCNC(=O)c1cccc2oc(-c3cc(Br)nn3-c3ncccc3Cl)nc12`, the inhibition is 30.1%.
Still for that read-out and setting: next, `COc1cccc(C)c1NC(=O)c1cccc2nc(-c3cc(Br)nn3-c3ncccc3Cl)[nH]c12`: 9.43%; `CCCNC(=O)c1cccc2nc(-c3cc(Br)nn3-c3ncccc3Cl)oc12`: 26.6%; `O=C(NCc1ccccc1)c1cccc2nc(-c3cc(Br)nn3-c3ncccc3Cl)[nH]c12`: 34.9%.
On to `O=C(Nc1ccccc1Br)c1cccc2nc(-c3cc(Br)nn3-c3ncccc3Cl)[nH]c12`, for which the inhibition turned out to be 27.6%.
Consider `O=C(Nc1ccc(C(F)(F)F)cc1)c1cccc2nc(-c3cc(Br)nn3-c3ncccc3Cl)[nH]c12`, for which the inhibition was 36.3%.
Still for that read-out and setting: the same measure for `O=C(NCc1ccc(Cl)cc1)c1cccc2nc(-c3cc(Br)nn3-c3ncccc3Cl)[nH]c12`: 44%.
